{"source": "paper PMC6680932", "about": "“Structure–Antioxidant–Antiproliferative Activity Relationships of Natural C7 and C7–C8 Hydroxylated Flavones and Flavanones” (Antioxidants, 2019)", "experiment": "FRAP (ferric ion reducing antioxidant power) assay", "conditions": "10 min, 593 nm; mean ± SD", "experimental": "The antioxidant capacity of flavonoids was measured in three separate tests: ABTS, DPPH, and ferric ion reducing antioxidant power (FRAP) assays (ABTS, DPPH, and FRAP reagents from Sigma-Aldrich). All tested compounds were dissolved in DMSO. All determinations were performed in triplicate. Standard curves were prepared for all assays using different concentrations of Trolox (6-hydroxy-2,5,7,8-tetramethylchroman-2-carboxylic acid) (Sigma-Aldrich). Trolox is a water-soluble analogue of vitamin E with high antioxidant activity, commonly used as a control and a reference in studies of antioxidant activity. The results were expressed as the equivalent of μmol Trolox per μmol of the test compound. The absorbance was measured using a UV-2401 PC spectrophotometer (Shimadzu, Kyoto, Japan). Concentrations of the tested samples were in the range from 50 µg/mL to 10 mg/mL.\nThe FRAP method is based on measuring the ability of antioxidants to reduce ferric 2,4,6-tris(2-pyridyl)-1,3,5-triazine [Fe(III)-TPTZ] in the blue colored ferrous form, which absorbs light at λ = 593 nm. The Fe(III)-TPTZ reagent was prepared as a mixture of acetate buffer (pH 3.6), 10 mM TPTZ in 40 mM HCl, and 20 mM FeCl3 in the ratio of 10:1:1 (v/v/v). The FRAP reagent was freshly prepared before each experiment. The samples (0.1 mL) were mixed in polystyrene cuvettes with 3 mL of ferric complex and 0.9 mL of distilled water. The absorbance was measured after 10 min at λ = 593 nm.", "data": [{"smiles": "O=c1cc(-c2ccc(O)cc2)oc2c(O)c(O)cc(O)c12", "note": "[Compound 10, 8-hydroxyapigenin]", "values": [{"measurement": "TEAC FRAP", "value": "7.824 ± 0.657 µmol trolox per µmol of tested"}]}]}
